Measured values taken from patent US11256170B2, “Compound, resist composition, and method for forming resist pattern using it” (Mitsubishi Gas Chemical Company, Inc., priority 2015, dated 2022).

Experiment: Safe solvent solubility test of compound
Assay type: physicochemical
Conditions: CHN, 23° C., ultrasonic waves 30 minutes, visual
Method: The solubilities of the compound in CHN, PGME, and PGMEA were evaluated according to the following criteria utilizing the amount of dissolution in each solvent. The amount of dissolution was measured at 23° C. by precisely weighing the compound into a test tube, adding a subject solvent so as to attain a predetermined concentration, applying ultrasonic waves for 30 minutes in an ultrasonic cleaner, and visually observing the subsequent state of the fluid.
A: 5.0% by mass≤Amount of dissolution
B: 3.0% by mass≤Amount of dissolution<5.0% by mass
C: Amount of dissolution<3.0% by mass

| Safe solvent CHN (solubility) | Compound |
| --- | --- |
| A (5.0% by mass≤Amount of dissolution) | COc1cc(C2c3c(ccc4cc(OC(=O)OC(C)(C)C)ccc34)Oc3ccc4cc(OC(=O)OC(C)(C)C)ccc4c32)cc(I)c1OC(=O)OC(C)(C)C [Compound A-3-BOC] |
| A (5.0% by mass≤Amount of dissolution) | CC(C)(C)OC(=O)Oc1ccc2c3c(ccc2c1)Oc1ccc2cc(OC(=O)OC(C)(C)C)ccc2c1C3c1cccc(I)c1 [Compound A-1-BOC] |
| A (5.0% by mass≤Amount of dissolution) | CC(C)(C)OC(=O)OCc1ccc2ccc3c(c2c1)C(c1cccc(I)c1)c1c(ccc2ccc(COC(=O)OC(C)(C)C)cc12)O3 [Compound B-1-MeBOC] |
| A (5.0% by mass≤Amount of dissolution) | COc1cc(C2c3c(ccc4cc(OCC(=O)OC(C)(C)C)ccc34)Oc3ccc4cc(OCC(=O)OC(C)(C)C)ccc4c32)cc(I)c1OCC(=O)OC(C)(C)C [Compound A-3-MeBOC] |
| A (5.0% by mass≤Amount of dissolution) | CC(C)(C)OC(=O)COc1ccc2c3c(ccc2c1)Oc1ccc2cc(OCC(=O)OC(C)(C)C)ccc2c1C3c1cccc(I)c1 [Compound A-1-MeBOC] |
| A (5.0% by mass≤Amount of dissolution) | CC(C)(C)OC(=O)Oc1ccc2c3c(ccc2c1)Oc1ccc2cc(OC(=O)OC(C)(C)C)ccc2c1C3c1ccc(-c2ccccc2)cc1 [XBisN-1-BOC, reference compound] |
| A (5.0% by mass≤Amount of dissolution) | CC(C)(C)OC(=O)Oc1ccc2ccc3c(c2c1)C(c1cccc(I)c1)c1c(ccc2ccc(OC(=O)OC(C)(C)C)cc12)O3 [Compound B-1-BOC] |

Same assay, conditions: PGME, 23° C., ultrasonic waves 30 minutes, visual

| Safe solvent PGME (solubility) | Compound |
| --- | --- |
| A (5.0% by mass≤Amount of dissolution) | COc1cc(C2c3c(ccc4cc(OC(=O)OC(C)(C)C)ccc34)Oc3ccc4cc(OC(=O)OC(C)(C)C)ccc4c32)cc(I)c1OC(=O)OC(C)(C)C [Compound A-3-BOC] |
| A (5.0% by mass≤Amount of dissolution) | CC(C)(C)OC(=O)Oc1ccc2c3c(ccc2c1)Oc1ccc2cc(OC(=O)OC(C)(C)C)ccc2c1C3c1cccc(I)c1 [Compound A-1-BOC] |
| A (5.0% by mass≤Amount of dissolution) | CC(C)(C)OC(=O)OCc1ccc2ccc3c(c2c1)C(c1cccc(I)c1)c1c(ccc2ccc(COC(=O)OC(C)(C)C)cc12)O3 [Compound B-1-MeBOC] |
| A (5.0% by mass≤Amount of dissolution) | COc1cc(C2c3c(ccc4cc(OCC(=O)OC(C)(C)C)ccc34)Oc3ccc4cc(OCC(=O)OC(C)(C)C)ccc4c32)cc(I)c1OCC(=O)OC(C)(C)C [Compound A-3-MeBOC] |
| A (5.0% by mass≤Amount of dissolution) | CC(C)(C)OC(=O)COc1ccc2c3c(ccc2c1)Oc1ccc2cc(OCC(=O)OC(C)(C)C)ccc2c1C3c1cccc(I)c1 [Compound A-1-MeBOC] |
| A (5.0% by mass≤Amount of dissolution) | CC(C)(C)OC(=O)Oc1ccc2ccc3c(c2c1)C(c1cccc(I)c1)c1c(ccc2ccc(OC(=O)OC(C)(C)C)cc12)O3 [Compound B-1-BOC] |

| Compound | Safe solvent PGME (solubility) |
| --- | --- |
| CC(C)(C)OC(=O)Oc1ccc2c3c(ccc2c1)Oc1ccc2cc(OC(=O)OC(C)(C)C)ccc2c1C3c1ccc(-c2ccccc2)cc1 [XBisN-1-BOC, reference compound] | B (3.0% by mass≤Amount of dissolution<5.0% by mass) |

Same assay, conditions: PGMEA, 23° C., ultrasonic waves 30 minutes, visual

| Safe solvent PGMEA (solubility) | Compound |
| --- | --- |
| A (5.0% by mass≤Amount of dissolution) | CC(C)(C)OC(=O)Oc1ccc2c3c(ccc2c1)Oc1ccc2cc(OC(=O)OC(C)(C)C)ccc2c1C3c1cccc(I)c1 [Compound A-1-BOC] |
| A (5.0% by mass≤Amount of dissolution) | CC(C)(C)OC(=O)OCc1ccc2ccc3c(c2c1)C(c1cccc(I)c1)c1c(ccc2ccc(COC(=O)OC(C)(C)C)cc12)O3 [Compound B-1-MeBOC] |
| A (5.0% by mass≤Amount of dissolution) | COc1cc(C2c3c(ccc4cc(OCC(=O)OC(C)(C)C)ccc34)Oc3ccc4cc(OCC(=O)OC(C)(C)C)ccc4c32)cc(I)c1OCC(=O)OC(C)(C)C [Compound A-3-MeBOC] |
| A (5.0% by mass≤Amount of dissolution) | CC(C)(C)OC(=O)COc1ccc2c3c(ccc2c1)Oc1ccc2cc(OCC(=O)OC(C)(C)C)ccc2c1C3c1cccc(I)c1 [Compound A-1-MeBOC] |
| A (5.0% by mass≤Amount of dissolution) | CC(C)(C)OC(=O)Oc1ccc2c3c(ccc2c1)Oc1ccc2cc(OC(=O)OC(C)(C)C)ccc2c1C3c1ccc(-c2ccccc2)cc1 [XBisN-1-BOC, reference compound] |
| A (5.0% by mass≤Amount of dissolution) | CC(C)(C)OC(=O)Oc1ccc2ccc3c(c2c1)C(c1cccc(I)c1)c1c(ccc2ccc(OC(=O)OC(C)(C)C)cc12)O3 [Compound B-1-BOC] |

| Compound | Safe solvent PGMEA (solubility) |
| --- | --- |
| COc1cc(C2c3c(ccc4cc(OC(=O)OC(C)(C)C)ccc34)Oc3ccc4cc(OC(=O)OC(C)(C)C)ccc4c32)cc(I)c1OC(=O)OC(C)(C)C [Compound A-3-BOC] | B (3.0% by mass≤Amount of dissolution<5.0% by mass) |

Same assay, conditions: summary of Table 1

| solubility in safe solvents (in words) | Compound |
| --- | --- |
| good solubility | COc1cc(C2c3c(ccc4cc(OC(=O)OC(C)(C)C)ccc34)Oc3ccc4cc(OC(=O)OC(C)(C)C)ccc4c32)cc(I)c1OC(=O)OC(C)(C)C [Compound A-3-BOC] |
| good solubility | CC(C)(C)OC(=O)Oc1ccc2c3c(ccc2c1)Oc1ccc2cc(OC(=O)OC(C)(C)C)ccc2c1C3c1cccc(I)c1 [Compound A-1-BOC] |
| good solubility | CC(C)(C)OC(=O)OCc1ccc2ccc3c(c2c1)C(c1cccc(I)c1)c1c(ccc2ccc(COC(=O)OC(C)(C)C)cc12)O3 [Compound B-1-MeBOC] |
| good solubility | COc1cc(C2c3c(ccc4cc(OCC(=O)OC(C)(C)C)ccc34)Oc3ccc4cc(OCC(=O)OC(C)(C)C)ccc4c32)cc(I)c1OCC(=O)OC(C)(C)C [Compound A-3-MeBOC] |
| good solubility | CC(C)(C)OC(=O)COc1ccc2c3c(ccc2c1)Oc1ccc2cc(OCC(=O)OC(C)(C)C)ccc2c1C3c1cccc(I)c1 [Compound A-1-MeBOC] |
| good solubility | CC(C)(C)OC(=O)Oc1ccc2c3c(ccc2c1)Oc1ccc2cc(OC(=O)OC(C)(C)C)ccc2c1C3c1ccc(-c2ccccc2)cc1 [XBisN-1-BOC, reference compound] |
| good solubility | CC(C)(C)OC(=O)Oc1ccc2ccc3c(c2c1)C(c1cccc(I)c1)c1c(ccc2ccc(OC(=O)OC(C)(C)C)cc12)O3 [Compound B-1-BOC] |
